# Source: the kinase profiling compilation of Christmann-Franck et al. (2016)
# “And” between values parts separate entries of the source, which are not always exact repeats. Identical values can stand only once.
# What was measured:
# Assay in all cases: radiometric filter-binding kinase assay, Kinase HotSpot
# Conditions in all cases: compound 0.5 µM; ATP 10 µM
# ACVR1 (human) = ACVR1 (human) (UniProt Q04771)
# BRSK1 (human) = BRSK1 (human) (UniProt Q8TDC3)
# CAMK1 (human) = CAMK1 (human) (UniProt Q14012)
# CAMK1G (human) = CAMK1G (human) (UniProt Q96NX5)
# CAMK2D (human) = CAMK2D (human) (UniProt Q13557)
# CDK6 CCND1 (human) = CDK6 CCND1 (human) (UniProt Q00534+P24385)
# CLK2 (human) = CLK2 (human) (UniProt P49760)
# CSNK1G3 (human) = CSNK1G3 (human) (UniProt Q9Y6M4)
# DAPK1 (human) = DAPK1 (human) (UniProt P53355)
# DAPK1 (human), sequence (P53355 whole entry, looked up): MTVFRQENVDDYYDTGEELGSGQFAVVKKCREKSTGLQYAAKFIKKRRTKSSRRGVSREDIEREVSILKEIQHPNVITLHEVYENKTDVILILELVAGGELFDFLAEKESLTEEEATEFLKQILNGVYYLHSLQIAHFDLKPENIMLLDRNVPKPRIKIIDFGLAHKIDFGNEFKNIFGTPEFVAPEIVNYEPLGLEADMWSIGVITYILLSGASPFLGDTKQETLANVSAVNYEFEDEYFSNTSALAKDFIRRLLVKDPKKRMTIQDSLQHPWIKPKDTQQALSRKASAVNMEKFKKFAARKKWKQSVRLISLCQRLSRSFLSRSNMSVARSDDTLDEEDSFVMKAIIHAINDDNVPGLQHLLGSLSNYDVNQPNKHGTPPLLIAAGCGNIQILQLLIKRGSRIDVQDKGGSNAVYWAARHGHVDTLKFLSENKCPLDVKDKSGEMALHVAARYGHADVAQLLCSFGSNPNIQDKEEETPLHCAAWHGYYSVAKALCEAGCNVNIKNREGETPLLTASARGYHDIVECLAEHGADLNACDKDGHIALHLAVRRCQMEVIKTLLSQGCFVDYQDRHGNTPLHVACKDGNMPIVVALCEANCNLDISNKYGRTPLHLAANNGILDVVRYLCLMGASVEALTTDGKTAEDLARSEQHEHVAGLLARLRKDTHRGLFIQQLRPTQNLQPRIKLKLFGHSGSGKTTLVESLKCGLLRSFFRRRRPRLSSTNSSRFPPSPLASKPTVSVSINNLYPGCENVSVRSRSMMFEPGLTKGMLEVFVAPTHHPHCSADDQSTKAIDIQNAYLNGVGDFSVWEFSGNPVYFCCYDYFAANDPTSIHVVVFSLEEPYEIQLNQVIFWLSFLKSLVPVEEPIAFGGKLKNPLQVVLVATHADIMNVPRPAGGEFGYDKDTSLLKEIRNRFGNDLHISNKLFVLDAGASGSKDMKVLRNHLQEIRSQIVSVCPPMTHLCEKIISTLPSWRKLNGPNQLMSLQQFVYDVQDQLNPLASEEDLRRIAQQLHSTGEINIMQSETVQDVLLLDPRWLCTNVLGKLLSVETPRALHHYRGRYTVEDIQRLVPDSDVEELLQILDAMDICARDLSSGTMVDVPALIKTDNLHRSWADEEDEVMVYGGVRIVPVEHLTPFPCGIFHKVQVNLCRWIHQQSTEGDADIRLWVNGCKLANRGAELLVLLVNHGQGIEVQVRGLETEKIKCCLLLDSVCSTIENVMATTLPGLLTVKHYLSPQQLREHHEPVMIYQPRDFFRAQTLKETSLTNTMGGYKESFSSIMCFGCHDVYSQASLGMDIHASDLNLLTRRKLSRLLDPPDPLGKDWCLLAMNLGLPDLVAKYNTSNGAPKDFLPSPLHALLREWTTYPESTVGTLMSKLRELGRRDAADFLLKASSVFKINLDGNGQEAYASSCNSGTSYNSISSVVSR
# DAPK2 (human) = DAPK2 (human) (UniProt Q9UIK4)
# DAPK2 (human), sequence (Q9UIK4 whole entry, looked up): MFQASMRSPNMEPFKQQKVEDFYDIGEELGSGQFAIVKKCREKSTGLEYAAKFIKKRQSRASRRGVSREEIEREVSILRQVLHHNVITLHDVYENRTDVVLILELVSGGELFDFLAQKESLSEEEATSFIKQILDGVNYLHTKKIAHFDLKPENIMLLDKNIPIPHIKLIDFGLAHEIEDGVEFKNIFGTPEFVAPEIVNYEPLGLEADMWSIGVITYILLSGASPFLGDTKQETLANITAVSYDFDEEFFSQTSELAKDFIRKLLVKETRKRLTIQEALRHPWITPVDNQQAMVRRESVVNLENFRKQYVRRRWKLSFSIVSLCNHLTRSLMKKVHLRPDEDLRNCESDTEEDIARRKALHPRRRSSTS
# DMPK (human) = DMPK (human) (UniProt Q09013)
# EPHA1 (human) = EPHA1 (human) (UniProt P21709)
# EPHA2 (human) = EPHA2 (human) (UniProt P29317)
# EPHA3 (human) = EPHA3 (human) (UniProt P29320)
# EPHA7 (human) = EPHA7 (human) (UniProt Q15375)
# EPHB1 (human) = EPHB1 (human) (UniProt P54762)
# EPHB1 (human), sequence (P54762 whole entry, looked up): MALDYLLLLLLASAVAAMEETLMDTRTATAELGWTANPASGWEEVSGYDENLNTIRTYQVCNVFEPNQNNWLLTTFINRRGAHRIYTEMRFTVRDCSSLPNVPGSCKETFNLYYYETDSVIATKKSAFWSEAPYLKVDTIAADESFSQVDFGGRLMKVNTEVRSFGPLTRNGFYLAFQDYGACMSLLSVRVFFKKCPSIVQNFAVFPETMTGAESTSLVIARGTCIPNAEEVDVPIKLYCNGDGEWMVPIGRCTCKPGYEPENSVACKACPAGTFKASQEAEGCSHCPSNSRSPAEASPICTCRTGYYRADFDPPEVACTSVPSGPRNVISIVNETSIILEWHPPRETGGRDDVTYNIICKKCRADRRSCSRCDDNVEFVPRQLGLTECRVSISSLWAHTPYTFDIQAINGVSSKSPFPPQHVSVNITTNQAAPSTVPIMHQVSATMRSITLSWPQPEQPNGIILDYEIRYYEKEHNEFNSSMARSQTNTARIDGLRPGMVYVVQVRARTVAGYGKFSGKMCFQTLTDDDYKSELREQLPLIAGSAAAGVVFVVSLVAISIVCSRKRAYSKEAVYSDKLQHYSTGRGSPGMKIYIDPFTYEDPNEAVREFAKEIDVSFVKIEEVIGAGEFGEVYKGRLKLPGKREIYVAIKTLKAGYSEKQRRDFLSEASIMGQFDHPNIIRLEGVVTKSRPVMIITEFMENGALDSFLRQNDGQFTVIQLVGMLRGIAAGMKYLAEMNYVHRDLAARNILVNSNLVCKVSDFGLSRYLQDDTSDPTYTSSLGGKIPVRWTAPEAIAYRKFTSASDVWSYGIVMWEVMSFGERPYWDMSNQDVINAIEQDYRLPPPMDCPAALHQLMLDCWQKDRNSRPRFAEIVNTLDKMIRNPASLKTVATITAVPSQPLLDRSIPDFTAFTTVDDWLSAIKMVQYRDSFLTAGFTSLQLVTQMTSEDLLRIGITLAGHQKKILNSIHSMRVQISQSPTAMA
# EPHB4 (human) = EPHB4 (human) (UniProt P54760)
# FES (human) = FES (human) (UniProt P07332)
# GRK6 (human) = GRK6 (human) (UniProt P43250)
# GRK7 (human) = GRK7 (human) (UniProt Q8WTQ7)
# HIPK2 (human) = HIPK2 (human) (UniProt Q9H2X6)
# HIPK3 (human) = HIPK3 (human) (UniProt Q9H422)
# IRAK4 (human) = IRAK4 (human) (UniProt Q9NWZ3)
# IRAK4 (human), sequence (Q9NWZ3 whole entry, looked up): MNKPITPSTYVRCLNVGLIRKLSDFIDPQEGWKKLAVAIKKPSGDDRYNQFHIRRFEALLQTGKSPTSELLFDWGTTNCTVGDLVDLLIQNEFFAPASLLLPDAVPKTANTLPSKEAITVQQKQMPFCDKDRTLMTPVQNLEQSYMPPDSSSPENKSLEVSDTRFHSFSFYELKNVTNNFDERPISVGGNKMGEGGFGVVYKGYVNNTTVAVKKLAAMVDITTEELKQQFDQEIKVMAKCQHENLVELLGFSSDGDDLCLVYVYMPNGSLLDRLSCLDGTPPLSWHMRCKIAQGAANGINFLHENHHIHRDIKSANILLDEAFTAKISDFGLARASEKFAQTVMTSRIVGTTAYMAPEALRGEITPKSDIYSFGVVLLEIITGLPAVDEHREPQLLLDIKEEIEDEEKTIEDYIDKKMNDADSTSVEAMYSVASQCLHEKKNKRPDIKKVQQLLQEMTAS
# LYN (human) = LYN (human) (UniProt P07948)
# LYN (human), sequence (P07948 whole entry, looked up): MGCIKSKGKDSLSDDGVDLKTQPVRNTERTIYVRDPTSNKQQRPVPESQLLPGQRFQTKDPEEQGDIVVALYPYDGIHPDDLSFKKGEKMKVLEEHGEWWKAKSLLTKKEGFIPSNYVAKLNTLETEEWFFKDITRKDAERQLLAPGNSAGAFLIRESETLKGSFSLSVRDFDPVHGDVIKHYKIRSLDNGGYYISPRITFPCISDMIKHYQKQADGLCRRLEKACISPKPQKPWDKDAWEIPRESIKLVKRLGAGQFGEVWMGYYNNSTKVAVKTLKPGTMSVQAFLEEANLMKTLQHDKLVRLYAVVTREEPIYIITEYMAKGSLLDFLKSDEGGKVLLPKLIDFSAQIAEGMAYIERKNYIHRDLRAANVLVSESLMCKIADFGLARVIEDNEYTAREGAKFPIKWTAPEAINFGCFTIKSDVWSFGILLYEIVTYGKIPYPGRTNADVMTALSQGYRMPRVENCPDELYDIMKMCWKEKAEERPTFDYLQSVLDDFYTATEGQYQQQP
# MAP3K7 TAB1 (human) = MAP3K7 TAB1 (human) (UniProt O43318+Q15750)
# MAPK10 (human) = MAPK10 (human) (UniProt P53779)
# MAPK9 (human) = MAPK9 (human) (UniProt P45984)
# MARK3 (human) = MARK3 (human) (UniProt P27448)
# NEK11 (human) = NEK11 (human) (UniProt Q8NG66)
# NEK6 (human) = NEK6 (human) (UniProt Q9HC98)
# NEK6 (human), sequence (Q9HC98 whole entry, looked up): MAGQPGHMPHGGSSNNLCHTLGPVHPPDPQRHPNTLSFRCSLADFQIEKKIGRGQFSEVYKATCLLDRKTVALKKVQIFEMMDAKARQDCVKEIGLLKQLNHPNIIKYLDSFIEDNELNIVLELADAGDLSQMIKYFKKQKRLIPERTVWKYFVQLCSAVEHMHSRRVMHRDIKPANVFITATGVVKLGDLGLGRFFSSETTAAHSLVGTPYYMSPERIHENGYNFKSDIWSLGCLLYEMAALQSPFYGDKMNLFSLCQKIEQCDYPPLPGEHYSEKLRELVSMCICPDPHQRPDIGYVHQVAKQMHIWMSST
# NEK7 (human) = NEK7 (human) (UniProt Q8TDX7)
# NEK9 (human) = NEK9 (human) (UniProt Q8TD19)
# NLK (human) = NLK (human) (UniProt Q9UBE8)
# PRKCG (human) = PRKCG (human) (UniProt P05129)
# PRKD3 (human) = PRKD3 (human) (UniProt O94806)
# PRKX (human) = PRKX (human) (UniProt P51817)
# ROCK1 (human) = ROCK1 (human) (UniProt Q13464)
# SIK2 (human) = SIK2 (human) (UniProt Q9H0K1)
# STK10 (human) = STK10 (human) (UniProt O94804)
# STK10 (human), sequence (O94804 whole entry, looked up): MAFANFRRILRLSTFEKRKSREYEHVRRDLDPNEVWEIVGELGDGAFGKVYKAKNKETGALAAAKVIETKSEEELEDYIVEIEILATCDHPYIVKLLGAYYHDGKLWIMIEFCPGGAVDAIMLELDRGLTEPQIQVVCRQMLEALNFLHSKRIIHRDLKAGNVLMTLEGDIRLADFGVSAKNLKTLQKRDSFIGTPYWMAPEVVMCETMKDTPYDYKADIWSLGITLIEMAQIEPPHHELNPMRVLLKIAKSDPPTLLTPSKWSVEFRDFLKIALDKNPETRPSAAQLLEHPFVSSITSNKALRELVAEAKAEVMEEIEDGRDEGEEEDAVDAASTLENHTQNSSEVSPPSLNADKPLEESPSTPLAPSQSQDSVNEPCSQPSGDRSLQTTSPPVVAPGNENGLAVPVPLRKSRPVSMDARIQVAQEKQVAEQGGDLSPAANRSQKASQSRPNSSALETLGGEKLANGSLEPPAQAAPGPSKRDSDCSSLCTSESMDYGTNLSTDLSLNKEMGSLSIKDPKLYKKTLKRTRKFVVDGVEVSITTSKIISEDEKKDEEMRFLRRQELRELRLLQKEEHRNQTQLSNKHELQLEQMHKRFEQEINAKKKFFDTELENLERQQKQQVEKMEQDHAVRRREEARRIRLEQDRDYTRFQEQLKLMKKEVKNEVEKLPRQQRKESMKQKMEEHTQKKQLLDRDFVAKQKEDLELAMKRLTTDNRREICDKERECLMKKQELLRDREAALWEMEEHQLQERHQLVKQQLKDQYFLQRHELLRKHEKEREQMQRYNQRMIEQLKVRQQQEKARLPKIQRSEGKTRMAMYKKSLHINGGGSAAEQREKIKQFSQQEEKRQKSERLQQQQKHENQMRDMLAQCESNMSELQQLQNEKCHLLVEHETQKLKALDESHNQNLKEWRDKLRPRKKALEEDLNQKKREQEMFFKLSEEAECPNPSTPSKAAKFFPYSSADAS
# STK39 (human) = STK39 (human) (UniProt Q9UEW8)
# TBK1 (human) = TBK1 (human) (UniProt Q9UHD2)
# WNK3 (human) = WNK3 (human) (UniProt Q9BYP7)
structure (smiles),measurement,setting,value
O=C1NC(=O)C(c2c[nH]c3ccccc23)=C1c1c[nH]c2ccccc12,residual activity,ACVR1 (human),97.1%
same,residual activity,BRSK1 (human),84.4%
same,residual activity,CAMK1 (human),105%
same,residual activity,CAMK1G (human),99.5%
same,residual activity,CAMK2D (human),65%
same,residual activity,CDK6 CCND1 (human),88.7%
same,residual activity,CLK2 (human),46.7%
same,residual activity,CSNK1G3 (human),89.9%
same,residual activity,DAPK1 (human),79.4%
same,residual activity,DAPK2 (human),88.6%
same,residual activity,DMPK (human),97.3%
same,residual activity,EPHA1 (human),92.1%
same,residual activity,EPHA2 (human),91.6%
same,residual activity,EPHA3 (human),95.1%
same,residual activity,EPHA7 (human),94.3%
same,residual activity,EPHB1 (human),83.1%
same,residual activity,EPHB4 (human),88.5%
same,residual activity,FES (human),99.8%
same,residual activity,GRK6 (human),101%
same,residual activity,GRK7 (human),91.8%
same,residual activity,HIPK2 (human),104%
same,residual activity,HIPK3 (human),96%
same,residual activity,IRAK4 (human),92%
same,residual activity,LYN (human),102% and 104%
same,residual activity,MAP3K7 TAB1 (human),97%
same,residual activity,MAPK10 (human),110%
same,residual activity,MAPK9 (human),95.4%
same,residual activity,MARK3 (human),98.5%
same,residual activity,NEK11 (human),108%
same,residual activity,NEK6 (human),101%
same,residual activity,NEK7 (human),99.9%
same,residual activity,NEK9 (human),97.3%
same,residual activity,NLK (human),103%
same,residual activity,PRKCG (human),91.4%
same,residual activity,PRKD3 (human),88.4%
same,residual activity,PRKX (human),99.5%
same,residual activity,ROCK1 (human),97.4%
same,residual activity,SIK2 (human),102%
same,residual activity,STK10 (human),49.6%
same,residual activity,STK39 (human),93.6%
same,residual activity,TBK1 (human),84%
same,residual activity,WNK3 (human),98.3%
COc1ccc(OC)c2c(=S)c3ccccc3[nH]c12,residual activity,ACVR1 (human),99.2%
same,residual activity,BRSK1 (human),93.7%
same,residual activity,CAMK1 (human),75.2%
same,residual activity,CAMK1G (human),99.5%
same,residual activity,CAMK2D (human),89.8%
same,residual activity,CDK6 CCND1 (human),102%
same,residual activity,CLK2 (human),81.2%
same,residual activity,CSNK1G3 (human),86.2%
same,residual activity,DAPK1 (human),106%
same,residual activity,DAPK2 (human),94%
same,residual activity,DMPK (human),99.6%
same,residual activity,EPHA1 (human),89%
same,residual activity,EPHA2 (human),100%
same,residual activity,EPHA3 (human),94.9%
same,residual activity,EPHA7 (human),89.7%
same,residual activity,EPHB1 (human),87.1%
same,residual activity,EPHB4 (human),91.1%
same,residual activity,FES (human),102%
same,residual activity,GRK6 (human),97.2%
same,residual activity,GRK7 (human),102%
same,residual activity,HIPK2 (human),98.3%
same,residual activity,HIPK3 (human),101%
same,residual activity,IRAK4 (human),109%
same,residual activity,LYN (human),106% and 96.9%
same,residual activity,MAP3K7 TAB1 (human),98.8%
same,residual activity,MAPK10 (human),108%
same,residual activity,MAPK9 (human),102%
same,residual activity,MARK3 (human),96.7%
same,residual activity,NEK11 (human),130%
same,residual activity,NEK6 (human),101%
same,residual activity,NEK7 (human),97.2%
same,residual activity,NEK9 (human),95.8%
same,residual activity,NLK (human),98.8%
same,residual activity,PRKCG (human),77.6%
same,residual activity,PRKD3 (human),94.1%
same,residual activity,PRKX (human),93.5%
same,residual activity,ROCK1 (human),97.8%
same,residual activity,SIK2 (human),114%
same,residual activity,STK10 (human),93.6%
same,residual activity,STK39 (human),94.4%
same,residual activity,TBK1 (human),97.5%
same,residual activity,WNK3 (human),99.1%
CCN(CC)CCCCN1c2ccccc2Oc2ccc(Cl)cc21,residual activity,ACVR1 (human),101%
same,residual activity,BRSK1 (human),98.3%
same,residual activity,CAMK1 (human),101%
same,residual activity,CAMK1G (human),99.2%
same,residual activity,CAMK2D (human),105%
same,residual activity,CDK6 CCND1 (human),98%
same,residual activity,CLK2 (human),105%
same,residual activity,CSNK1G3 (human),78.3%
same,residual activity,DAPK1 (human),76.6%
same,residual activity,DAPK2 (human),99%
same,residual activity,DMPK (human),99.2%
same,residual activity,EPHA1 (human),90.5%
same,residual activity,EPHA2 (human),106%
same,residual activity,EPHA3 (human),101%
same,residual activity,EPHA7 (human),102%
same,residual activity,EPHB1 (human),110%
same,residual activity,EPHB4 (human),97.9%
same,residual activity,FES (human),99.8%
same,residual activity,GRK6 (human),88.4%
same,residual activity,GRK7 (human),96.2%
same,residual activity,HIPK2 (human),118%
same,residual activity,HIPK3 (human),94.2%
same,residual activity,IRAK4 (human),194%
same,residual activity,LYN (human),105% and 115%
same,residual activity,MAP3K7 TAB1 (human),102%
same,residual activity,MAPK10 (human),104%
same,residual activity,MAPK9 (human),105%
same,residual activity,MARK3 (human),102%
same,residual activity,NEK11 (human),92%
same,residual activity,NEK6 (human),107%
same,residual activity,NEK7 (human),89.7%
same,residual activity,NEK9 (human),98.8%
same,residual activity,NLK (human),101%
same,residual activity,PRKCG (human),91.1%
same,residual activity,PRKD3 (human),97.1%
same,residual activity,PRKX (human),103%
same,residual activity,ROCK1 (human),92.6%
same,residual activity,SIK2 (human),111%
same,residual activity,STK10 (human),97.1%
same,residual activity,STK39 (human),83.5%
same,residual activity,TBK1 (human),86.3%
same,residual activity,WNK3 (human),108%
O=C1Nc2ccccc2/C1=C1/Nc2ccccc2/C1=N\OCCC(O)CO (stereo not drawn),residual activity,ACVR1 (human),199%
same,residual activity,BRSK1 (human),39.5%
same,residual activity,CAMK1 (human),76%
same,residual activity,CAMK1G (human),102%
same,residual activity,CAMK2D (human),29.1%
same,residual activity,CDK6 CCND1 (human),27.7%
same,residual activity,CLK2 (human),92%
same,residual activity,CSNK1G3 (human),90.7%
same,residual activity,DAPK1 (human),80.9%
same,residual activity,DAPK2 (human),104%
same,residual activity,DMPK (human),99.5%
same,residual activity,EPHA1 (human),82.2%
same,residual activity,EPHA2 (human),65.3%
same,residual activity,EPHA3 (human),69%
same,residual activity,EPHA7 (human),71.4%
same,residual activity,EPHB1 (human),65.9%
same,residual activity,EPHB4 (human),72.2%
same,residual activity,FES (human),81.7%
same,residual activity,GRK6 (human),53.1%
same,residual activity,GRK7 (human),70.3%
same,residual activity,HIPK2 (human),97.6%
same,residual activity,HIPK3 (human),66.2%
same,residual activity,IRAK4 (human),60.3%
same,residual activity,LYN (human),25.4% and 45.5%
same,residual activity,MAP3K7 TAB1 (human),50.5%
same,residual activity,MAPK10 (human),103%
same,residual activity,MAPK9 (human),44.3%
same,residual activity,MARK3 (human),75.2%
same,residual activity,NEK11 (human),92.3%
same,residual activity,NEK6 (human),96.3%
same,residual activity,NEK7 (human),98.9%
same,residual activity,NEK9 (human),73.6%
same,residual activity,NLK (human),101%
same,residual activity,PRKCG (human),92%
same,residual activity,PRKD3 (human),68.1%
same,residual activity,PRKX (human),84.2%
same,residual activity,ROCK1 (human),101%
same,residual activity,SIK2 (human),75.1%
same,residual activity,STK10 (human),52.1%
same,residual activity,STK39 (human),79.3%
same,residual activity,TBK1 (human),29.9%
same,residual activity,WNK3 (human),79.7%
